The values that follow come from US20040029860A1, “Anti-proliferative drugs” (priority 2000, published 2004).

Data set [1] concerns mouse Lewis lung carcinoma (3LL). Nature of the data set: in vivo effect on Lewis lung carcinoma (3LL) in mice. The conditions noted are these: 3LL inoculated C57 mice, i.p. daily, thioridazine 15 mg/kg, others 30 mg/kg; for lungs weight / tumor size compared to control group: FIG. 5. Here is the method:
Female C57 black mice aged 4 weeks were used in order to evaluate the in vivo effect of cyclic psychotropic agents on tumor cells. In particular, animals were divided into 5 groups (6-8 mice each). Animals were inoculated with mouse Lewis lung carcinoma (3LL, 0.5 million each) by i.v. injection to the tail vein and then treated by i.p. injection daily for 3 weeks with the following different agents
(5) Paroxetine (30 mg/kg).
During the treatment period animals were inspected daily and their body weight registered twice a week. […] After the four weeks of treatment the mice were sacrificed and their lungs dissected and weighted.

Data set [2] deals with B16 melanoma cells. The experiment in a line: sensitization to doxorubicin, B16 melanoma cells. In kind it is cell-based, mouse. As to conditions: clomipramine 10, […], 20 μM with doxorubicin 1, 2.5, 5 μM; FIG. 6B.
The subject of the next data set is MDR B16 melanoma. The experiment in a line: sensitization to doxorubicin, MDR B16 melanoma. In kind it is cell-based, mouse. The conditions noted are these: dose dependant, FIG. 6C.
Data set [3] relates to doxorubicin resistant neuroblastoma cells (SH-SY5T). The experiment in a line: sensitization to doxorubicin, doxorubicin resistant neuroblastoma SH-SY5T. In kind it is cell-based, human. As to conditions: dose dependant, FIG. 6E, 6F.
For the next data set, the system named is HaCat keratinocytes. The experiment in a line: keratinocyte viability, Neutral red, HaCat. In kind it is cell-based, human. The conditions noted are these: 5-100 μM, 24 hr, Neutral red; FIG. 13A, 15A. On the procedure: (§1) The drugs were administered at concentrations within the range of 5-100 μM and cell viability was measured 24 hr post-administration by Neutral red staining. The efficiency of the agents against viability of the cell lines was evaluated also by comparison with two commonly used anticancer agents (Doxorubicin and 5-fluorouracil (5-FU)) at equimolar concentrations.

A further data set has as its system HaCat I5 keratinocytes. Nature of the data set: keratinocyte viability, Neutral red, HaCat I5. In kind it is cell-based, human. The conditions noted are these: 5-100 μM, 24 hr, Neutral red; FIG. 13B, 15B. Here is the method: as §1
For another data set, the system named is p53 mutant. Nature of the data set: p53 mutant expression, western blotting in glioma C6. In kind it is cell-based, rat. As to conditions: 30 and 60 μM, FIG. 8. In general terms: In western blotting, separated proteins are transferred to a membrane and probed.
For data set [4], the system named is B16 melanoma cells. In kind it is in vivo. On the procedure:
Male C57 black mice aged 5-7 weeks were used. Animals were inoculated with B16 melanoma cells by iv. injection (200,000 cells/mouse) to the tail vein. […]. Body weight was recorded three times weekly during the experiment and survival was registered. Animals were sacrificed 24 days after cell inoculation, and lungs were dissected and weighted.

The subject of a further data set is B16 melanoma. The conditions noted are these: for mean number of metastases: controls 53.8+; for mean lungs weight: day 27, controls 685; for mice with confluent lungs: controls 6/7. Here is the method: Female C57 mice aged 5-7 weeks were used, animals were divided into 3 treatment groups:
1. Controls: B16 inoculated vehicle treated;
Half of the animals were sacrificed after 21 days and half after 27 days. Lungs weight and number of metastases were recorded.

In another data set the test system is Melanoma B16 cells. Here is the method: Animals were divided into three groups:
1. Controls B16 with no therapy;
Water consumption was registered daily, and calculation of dose was performed according to the mean consumed water. Body weight was registered 3 time/week.

Another data set has as its system HaCat cells. Nature of the data set: DNA fragmentation, flow cytometry, HaCat. In kind it is cell-based, human. As to conditions: basal 29%. Here is the method:
(§2) DNA fragmentation was determined by flow cytometric analysis of propidium iodide-stained cells according to the method of Vindelov et al Vindelov, L. L., et al. Cytometry.
On the technique in general: A flow cytometer gives signals particle by particle.

In another data set the test system is HaCat I5 cells. Nature of the data set: DNA fragmentation, flow cytometry, HaCat I5. In kind it is cell-based, human. The conditions noted are these: basal 10.23%. Here is the method:
as §2

“Also recorded” adds a separate entry of the source. Where two headings read alike, the source gives them in different places.

With `CN(C)CCCN1c2ccccc2CCc2ccc(Cl)cc21` [Clomipramine], in data set [1], the “survival rate during four weeks of treatment” value is given as 7/7 and the “lungs weight / tumor size compared to control group” value is recorded as “effective in reducing tumor size”. In addition, in the data set with B16 melanoma cells [2], the “cell viability in combination with doxorubicin” value is “less than 15 % from control”. Further, in the data set with MDR B16 melanoma, the “cell viability in combination with doxorubicin (in words)” value is listed as “significantly decreased”. Moreover, the “potentiation of doxorubicin toxicity (in words)” value in data set [3] is on record as “potentiate the toxicity of doxorubicin”. Besides, the “cell viability HaCat (in words)” value with HaCat keratinocytes is “effective in reducing cell viability”. In addition, in the data set with HaCat I5 keratinocytes, the “cell viability HaCat I5 (in words)” value is reported as “effective in reducing cell viability”.
Take `CSc1ccc2c(c1)N(CCC1CCCCN1C)c1ccccc1S2` (centres unmarked) [Thioridazine]: the “survival rate during four weeks of treatment” value in data set [1] is reported as 7/7. Also, the “lungs weight / tumor size compared to control group” value in [1] is “effective in reducing tumor size”. The “mean decrease in expression of p53 mutant” value with p53 mutant is 75%. For the same molecule, the survival rate is reported as 4/5 with B16 melanoma cells [4] (2.5 mg/kg i.p. 3 times/week), 3/4 in the data set with B16 melanoma cells [4] (5 mg/kg i.p. 3 times/week), 5/5 in the data set with B16 melanoma cells [4] (10 mg/kg i.p. 3 times/week) and 5/5 with B16 melanoma cells [4] (20 mg/kg i.p. 3 times/week). For the same molecule, the lungs weight entry in the data set on B16 melanoma cells [4] (20 mg/kg compared to 2.5 mg/kg (p=0.05), 24 days after inoculation) is on record as “significant decrease”; in the data set on B16 melanoma (after 21 days, vs controls) it was “No difference”. Further, the “mean number of metastases” value with B16 melanoma (10 mg/kg i.p. x3/week, after 21 days) was 46.1; in the data set with B16 melanoma ([…] mg/kg i.p. x3/week, after 21 days), 28.5. Also, the mean lungs weight in the data set with B16 melanoma (10 mg/kg) is reported as 520 mg; in the data set on B16 melanoma ([…] mg/kg), 335 mg. Besides, the “mice with confluent lungs” value was 6/7 in the data set with B16 melanoma (10 mg/kg) and 2/7 in the data set on B16 melanoma ([…] mg/kg). Moreover, the effective doses in the data set with B16 melanoma (parenteral route, B16 melanoma in mice) fell in the range of 15 to 20 mg/kg. For the same molecule, the toxic concentrations result with B16 melanoma (parenteral route, mice) is “higher than 30 mg/kg”. Further, the “mice with big or conglomerate metastases” value in the data set on Melanoma B16 cells (20-30 mg/kg per day, after 24 days, same rate as controls) is given as 1/7. The “animals with confluent metastases” value in the data set on Melanoma B16 cells (27 and 30 days, controls 6/11) was 0/21. Moreover, in the data set on Melanoma B16 cells (30-40 mg/kg per day, after 24 days), the “big or confluent metastases” value was “No big or confluent metastases were found”. In addition, the “spontaneous death during experiment” value in the data set with Melanoma B16 cells (controls 5/18) is recorded as 2/36. Further, the “body weight vs healthy and B16 controls” value in the data set on Melanoma B16 cells (in drinking water) was “No difference”. Moreover, the “cell viability HaCat (in words)” value in the data set on HaCat keratinocytes was “effective in reducing cell viability; also recorded: responded”. The “cell viability HaCat I5 (in words)” value with HaCat I5 keratinocytes was “effective in reducing cell viability; also recorded: responded”. Also, the entries for the “rate of DNA fragmentation” value in the data set on HaCat cells (25 μM) and with HaCat cells (50 μM) were 82.8% and 89.3%, respectively. The results for the “apoptosis (DNA fragmentation)” value in the data set on HaCat I5 cells (25 μM) and with HaCat I5 cells (50 μM) were 74.5% and 76.6%, respectively.
